Reference: patent US4000151A, “Triazolyl benzophenone compounds” (priority 1975, dated 1976)

Legend:
Type in all cases: in vivo
mice [1] = test: Chimney test (mice back up and out of a vertical glass cylinder within 30 seconds); conditions: Mus musculus
Description: (§1) Sedative effects of 8-chloro-1-methyl-6-phenyl-4H-s-triazolo[ 4,3-a][ 1,4]benzodiazepine (a final product conforming to formula VII) are shown by the following tests in mice: […]
Chimney test: [Med. Exp. 4, 145 (1961)]: The effective intraperitoneal dosage for 50% of the mice (ED50) is 0.09 mg./kg.; the oral ED50 is 0.6 mg./kg. The test determines the ability of mice to back up and out of a vertical glass cylinder within 30 seconds. At the effective dosage, 50% of the mice failed doing it.

mice [2] = test: Dish test (mice remaining in Petri dish for more than 3 minutes); conditions: Mus musculus; Table II, route not given
Description: as §1
Dish test: Mice in Petri dishes (10 cm. diameter, 5 cm. high, partially embedded in wood shavings), climb out in a very short time, when not treated. Mice remaining in the dish for more than 3 minutes indicates tranquilization. ED50 equals the dose of the test compound at which 50% of the mice remain in the dish.

mice [3] = test: Pedestal test (mice staying on the pedestal for more than 1 minute); conditions: Mus musculus; Table II, route not given
Description: as §1
Pedestal test; The untreated mouse leaves the pedestal in less than a minute to climb back to the floor of the standard mouse box. Tranquilized mice will stay on the pedestal for more than 1 minute. The ED50 (oral administration) is 0.9 mg./kg.

mice [4] = test: Nicotine antagonism test; conditions: Mus musculus; Table II, route not given
Description: Nicotine antagonism test: Mice in a group of 6 are injected with the test compound (8-chloro-1-methyl-6-phenyl-4H-s-triazolo[ 4,3-a][ 1,4]benzodiazepine). Thirty minutes later the mice, including control (untreated) mice are injected with nicotine salicylate (2 mg./kg.). The control mice show overstimulation, i.e., (1) running convulsions followed by (2) tonic extensor fits, followed by (3) death.

SMILES | ED50 (mice [1]; Table II, route not given, read-out: ED50 Ch) [mg/kg] | ED50 (mice [2]) [mg/kg] | ED50 (mice [3]) [mg/kg] | ED50 (mice [4]) [mg/kg] | ED50 (mice [1]; mice, oral, read-out: oral ED50, chimney test) [mg/kg]
Cc1nncn1-c1ccc(Cl)cc1C(=O)c1ccccc1 [5-Chloro-2-(3-methyl-4H-1,2,4-triazol-4-yl)benzophenone] | 28 | 23 | 20 | 20 | 
Cc1nnc2n1-c1ccc(Cl)cc1C(c1ccccc1)=NC2 [8-Chloro-1-methyl-6-phenyl-4H-s-triazolo[4,3-a][1,4]benzodiazepine] |  |  |  |  | 0.6
